Like-named read-outs stand apart in the source and are kept apart here.
How the values were obtained:
Format in all cases: cell-based
MEF (C57BL/6) = experiment: MTT cell viability assay, MEF (C57BL/6); conditions: Mus musculus
Method: (§1) Cells were then treated with compound at various concentrations in 0.2 mL media. After the 72-hour incubation period, cells were washed in PBS (3×100 μL), and 10 μL MTT reagent was added with 100 μL fresh media. Cells were then incubated for 4 hr in a humidified chamber at 37° C. with 5% CO2. Insoluble formazan crystals were solubilized by addition of 0.1 mL detergent solution (4 hr at room temp., dark). Resulting colored solutions were then quantified at an absorbance of 570 nm.

MDA-MB-231 = experiment: MTT cell viability assay, MDA-MB-231; conditions: Homo sapiens
Method: as §1

MCF-7 = experiment: MTT cell viability assay, MCF-7; conditions: Homo sapiens, read-out: IC50/μM MCF-7
Method: as §1

[1] = MTT, 72-hour incubation, read-out: IC50/μM MEF (C57BL/6)
[2] = 72 h, read-out: IC50/μM MEF (C57BL/6), MTT, 72-hour incubation
[3] = MDA-MB-231, 72 h, 72-hour incubation
[4] = MCF7, 72 h, MTT, 72-hour incubation

Structure (SMILES)	IC50 (MDA-MB-231; MDA-MB-231, 72-hour incubation) [µM]	IC50 (MCF-7; MCF7, MTT, 72-hour incubation) [µM]	IC50 (MEF (C57BL/6); [1]) [µM]	IC50 (MEF (C57BL/6); [2]) [µM]	IC50 (MDA-MB-231; [3]) [µM]	IC50 (MCF-7; MCF7, 72 h) [µM]	IC50 (MCF-7; [4]) [µM]
CCn1c(=O)/c(=C2\Sc3cc(SC)ccc3N2C)s/c1=C\c1scc[n+]1C(C)c1ccccc1 (stereo not drawn) [JG-321]	0.14 ± 0.01	0.23 ± 0.03	1.8 ± 0.1	–	–	–	–
CCn1c(=O)/c(=C2\Sc3cc(C(C)C)ccc3N2C)s/c1=C\c1scc[n+]1Cc1ccccc1C [JG-324]	0.15 ± 0.02	0.17 ± 0.02	1.9 ± 0.1	–	–	–	–
CCn1c(=O)/c(=C2\Sc3cc(C(C)C)ccc3N2C)s/c1=C\c1scc[n+]1Cc1ccccc1OC(F)(F)F [JG-325]	–	–	–	0.48 ± 0.02	0.21 ± 0.01	0.09 ± 0.005	–
CCn1c(=O)/c(=C2\Sc3cc(C(C)C)ccc3N2C)s/c1=C\c1scc[n+]1Cc1ccc(C(F)(F)F)o1 [JG-328]	0.23 ± 0.02	0.14 ± 0.02	0.7 ± 0.03	–	–	–	–
CCn1c(=O)/c(=C2\Sc3cc(Cl)ccc3N2C)s/c1=C\c1scc[n+]1Cc1ccccc1C(=O)OC [JG-331]	–	–	–	2.9 ± 0.1	0.17 ± 0.02	–	0.17 ± 0.02
CCn1c(=O)/c(=C2\Sc3cc(Cl)ccc3N2C)s/c1=C\c1scc[n+]1[C@@H](C)c1ccccc1 [JG-335]	0.11 ± 0.01	0.14 ± 0.02	1.4 ± 0.1	–	–	–	–
CCn1c(=O)/c(=C2\Sc3cc(F)ccc3N2C)s/c1=C\c1scc[n+]1[C@@H](C)c1ccccc1 [JG-336]	0.21 ± 0.02	0.18 ± 0.02	2.2 ± 0.1	–	–	–	–
CCn1c(=O)/c(=C2\Sc3cc(Cl)ccc3N2C)s/c1=C\c1scc[n+]1Cc1c(Cl)cccc1Cl [JG-337]	–	–	–	1.4 ± 0.1	0.16 ± 0.01	–	0.16 ± 0.01
CCn1c(=O)/c(=C2\Sc3cc(Cl)ccc3N2C)s/c1=C\c1scc[n+]1[C@H](C)c1ccccc1 [JG-339]	0.19 ± 0.02	0.37 ± 0.04	1.5 ± 0.08	–	–	–	–
CCn1c(=O)/c(=C2\Sc3cc(F)ccc3N2C)s/c1=C\c1scc[n+]1[C@H](C)c1ccccc1 [JG-340]	0.38 ± 0.03	0.24 ± 0.03	1.5 ± 0.05	–	–	–	–
C=CCn1c(=O)/c(=C2\Sc3cc(C)ccc3N2C)s/c1=C\c1scc[n+]1Cc1ccccc1 [JG-341]	0.11 ± 0.01	0.15 ± 0.01	1.6 ± 0.1	–	–	–	–
CCc1ccc2c(c1)S/C(=c1/s/c(=C\c3scc[n+]3Cc3c(Cl)cccc3Cl)n(CC)c1=O)N2C [JG-342]	0.1 ± 0.01	–	0.3 ± 0.1	–	–	–	0.093 ± 0.007

Further lines, with some results ahead:

IC50 (MDA-MB-231; MDA-MB-231, 72-hour incubation) [µM]	IC50 (MCF-7; MCF7, MTT, 72-hour incubation) [µM]	Structure (SMILES)	IC50 (MEF (C57BL/6); [1]) [µM]	IC50 (MEF (C57BL/6); [2]) [µM]	IC50 (MDA-MB-231; [3]) [µM]	IC50 (MCF-7; MCF7, 72 h) [µM]	IC50 (MCF-7; [4]) [µM]
0.14 ± 0.02	0.35 ± 0.08	CCn1c(=O)/c(=C2\Sc3cc(Br)ccc3N2C)s/c1=C\c1scc[n+]1C(C)c1ccccc1 (stereo not drawn) [JG-317]	2.7 ± 0.1	–	–	–	–
0.11 ± 0.01	0.16 ± 0.03	CCn1c(=O)/c(=C2\Sc3cc(C)ccc3N2C)s/c1=C\c1scc[n+]1C(C)c1ccccc1 (stereo not drawn) [JG-318]	1.1 ± 0.1	–	–	–	–
0.26 ± 0.03	0.13 ± 0.01	CCn1c(=O)/c(=C2\Sc3cc(C(C)C)ccc3N2C)s/c1=C\c1scc[n+]1C(C)c1ccccc1 (stereo not drawn) [JG-319]	1.7 ± 0.04	–	–	–	–
0.3 ± 0.05	0.1 ± 0.01	CCc1ccc2c(c1)S/C(=c1/s/c(=C\c3scc[n+]3C(C)c3ccccc3)n(CC)c1=O)N2C (stereo not drawn) [JG-320]	1.3 ± 0.04	–	–	–	–
0.15 ± 0.01	0.14 ± 0.01	CCn1c(=O)/c(=C2\Sc3cc(OC)ccc3N2C)s/c1=C\c1scc[n+]1C(C)c1ccccc1 (stereo not drawn) [JG-322]	1.7 ± 0.1	–	–	–	–
0.19 ± 0.01	0.12 ± 0.01	CCn1c(=O)/c(=C2\Sc3cc(C(C)C)ccc3N2C)s/c1=C\c1scc[n+]1Cc1ccccc1Cl [JG-323]	0.53 ± 0.02	–	–	–	–
0.06 ± 0.007	0.069 ± 0.005	CCn1c(=O)/c(=C2\Sc3cc(C(C)C)ccc3N2C)s/c1=C\c1scc[n+]1Cc1ccccc1C(F)(F)F [JG-326]	0.45 ± 0.04	–	–	–	–
0.17 ± 0.02	0.15 ± 0.02	CCn1c(=O)/c(=C2\Sc3cc(C(C)C)ccc3N2C)s/c1=C\c1scc[n+]1Cc1ccsc1C(=O)OC [JG-327]	0.7 ± 0.03	–	–	–	–
0.39 ± 0.06	0.58 ± 0.1	CCn1c(=O)/c(=C2\Sc3cc(Cl)ccc3N2C)s/c1=C\c1scc[n+]1Cc1ccccc1CO [JG-329]	7.3 ± 2.1	–	–	–	–
1.93 ± 0.27	1.08 ± 0.14	CCn1c(=O)/c(=C2\Sc3cc(F)ccc3N2C)s/c1=C\c1scc[n+]1Cc1ccccc1CO [JG-330]	> 10	–	–	–	–
0.26 ± 0.03	0.22 ± 0.03	CCn1c(=O)/c(=C2\Sc3cc(F)ccc3N2C)s/c1=C\c1scc[n+]1Cc1ccccc1C(=O)OC [JG-332]	2 ± 0.1	–	–	–	–
0.19 ± 0.02	0.35 ± 0.04	CCn1c(=O)/c(=C2\Sc3cc(Cl)ccc3N2C)s/c1=C\c1scc[n+]1Cc1c(C)cccc1C [JG-333]	1.1 ± 0.1	–	–	–	–
0.38 ± 0.04	0.32 ± 0.03	CCn1c(=O)/c(=C2\Sc3cc(F)ccc3N2C)s/c1=C\c1scc[n+]1Cc1c(C)cccc1C [JG-334]	1.4 ± 0.1	–	–	–	–
0.14 ± 0.01	0.17 ± 0.02	CCn1c(=O)/c(=C2\Sc3cc(F)ccc3N2C)s/c1=C\c1scc[n+]1Cc1c(Cl)cccc1Cl [JG-338]	1 ± 0.03	–	–	–	–
